Experimental findings from patent US7635779B2, “Oxy substituted flavones as antihyperglycemic and antidyslipidemic agents” (Council of Scientific & Industrial Research, priority 2004, dated 2009) are described below.

Where two headings read alike, the source gives them in different places.

In data set [1] the test system is triton WR-1339 induced hyperlipidemic rats. Put plainly: Triton model, antidyslipidemic activity. To be noted: 100 mg/kg oral, plasma after 18 h; for inhibition in vivo at 100 mg/kg: Rattus norvegicus. Type of data set: in vivo, rat. The protocol: Male Charles foster rats weighing 200-225 g were divided into control, hyperlipidemic and hyperlipidemic plus drug treated groups containing six animals in each group. Hyperlipidemia was induced by administration of triton WR-1339 (200 mg/kg i.p.). All animals were maintained on a special pellet diet and water ad libitum. Compounds and standard drug were macerated with 0.2% aqueous gum acacia suspension. The suspension was fed orally at the dose of 100 mg/kg simultaneously with triton in drug treated group. The animals of control group received the same amount of gum acacia by similar route of administration. At the end of the experiment, after 18 h, blood was withdrawn from retro orbital plexus and plasma was used for the assay of total cholesterol, phospholipid and triglycerides.
Cholesterol was estimated using the kit provided by Roche Diagnostics. Cholesterol esters are enzymatically hydrolyzed by cholesterol esterase (CE) to cholesterol and free fatty acids. Free cholesterol, including that originally present, is then oxidized by cholesterol oxidase (CO) to cholest-4-en-3-one and hydrogen peroxide. The hydrogen peroxide combines with hydroxy benzoic acid (HBA) and 4-aminoantipyrine (4AAA) in the presence of peroxidase (POD) to form a chromophore (quinoneimine dye), which may be quantitated at 500-505 nm. The intensity of red colour formed is directly proportional to the concentration of total cholesterol in the specimen and measured spectrophotometrically (Searcy, C. L. Diagnostic Biochemistry, 1969, McGraw Hill, New York; Ellefson, R. D.; Caraway, W. T. Fundamentals of clinical chemistry, 1976, Ed Tietz N W, 506-515.)
Triglycerides were estimated using the kit provided by Roche Diagnostics. Lipoprotein lipase hydrolyses triglycerides to yield glycerol and fatty acids. Glycerol kinase converts glycerol to glycerol-3-phosphate, which is oxidized by glycerol phosphate oxidase to dihydroxy acetone phosphate and hydrogen peroxide. In the presence of peroxidase, hydrogen peroxide oxidatively couples with 4-aminoantipyrine and 4-chloro phenol to produce red quinonimine dye. The intensity of red colour formed is directly proportional to the concentration of triglycerides in the specimen and is measured by photometrically (Wahlefeld, A. W.; Bergmeyer, H. U. Ed. Methods of enzymatic analysis, 2nd English edition, New York, N.Y., Academic press inc, 1831-1840.).
Serum (0.2 mL) and perchloric acid (1.0 mL) was digested at 180° C. for 1-1.5 h till the solution became colorless. The liberated inorganic phosphate (Pi) was measured by the method of Fiske and Subbarow (Fiske, C. H.; Subbarow, V. J. Biol. Chem. 1925, 66, 375.). 1 mL of 2.5% ammonium molybdate (prepared in 5 N sulphuric acid) and 0.5 mL reducing agent (4-amino naphthol sulphonic acid, 0.2%), sodium metabisulphite (2.4% w/v in distilled water) was added to the above tubes and mixed well. The reaction mixture was […] with 2.5 mL of triple distilled water and kept at 60° C. in water bath for 20 min. For standard, an appropriate amount of potassium dihydrogen phosphate dissolved in triple distilled water containing 2-10 μg phosphorous (Pi) was run simultaneously with the experiment tubes. The optical density of the blue colour was recorded at 620 nm against reagent blank. The values of Pi were converted into phospholipid by multiplying with 25 (a constant calibrated from Pi value of lecithin).

A further data set has as its system sucrose loaded rat. Put plainly: Sucrose loaded rat model (SLM), antihyperglycemic activity. Type of data set: in vivo. To be noted: for % Fall in blood glucose levels, SLM: 100 mg/kg oral, AUC vs control; for inhibition in vivo at 100 mg/kg: Rattus norvegicus, po, 2 h, read-out: % Fall in blood glucose levels, SLM. The protocol: Male albino rats of Charles Foster/Wistar strain of average body weight 160±20 g were selected for this study. The blood glucose level of each animal was checked by glucometer using glucostrips (Boehringer Mannheim) after 16 h starvation. Animals showing blood glucose levels between 3.33 to 4.44 mM (60 to 80 mg/dl) were divided into groups of five to six animals in each. Animals of experimental group were administered suspension of the desired synthetic compound orally (made in 1.0% gum acacia) at a dose of 100-mg/kg-body weight. Animals of control group were given an equal amount of 1.0% gum acacia. A sucrose load (10.0 g/kg) was given to each animal orally exactly after 30 min post administration of the test sample/vehicle. Blood glucose profile of each rat was again determined at 30, 60, 90 and 120 min post administration of sucrose by glucometer. Food but not water was withheld from the cages during the course of experimentation. Quantitative glucose tolerance of each animal was calculated by Area Under Curve (AUC) method (Prism Software). Comparing the AUC of experimental and control groups determined the percentage antihyperglycemic activity. Statistical comparison was made by Dunnett's test.

Data set [2] concerns streptozotocin-induced diabetic rats. Put plainly: Sucrose-challenged streptozotocin-induced diabetic rats (STZ-S). The class given is in vivo, rat. To be noted: 100 mg/kg oral. The protocol: Male albino rats of Sprague Dawley strain of body weight 160+20 g were selected for this study. Streptozotocin (Sigma, USA) was dissolved in 100 mM citrate buffer pH 4.5 and calculated amount of the fresh solution was injected to overnight fasted rats (45 mg/kg) intraperitoneally. Blood glucose level was checked 48 h later by glucostrips and animals showing blood glucose values between 144 to 270 mg/dl (8 to 15 mM) were included in the experiment and termed diabetic. The diabetic animals were divided into groups consisting of five to six animals in each group. Animals of experimental groups were administered suspension of the desired test samples orally (made in 1.0% gum acacia) at a dose of 100-mg/kg-body weight. Animals of control group were given an equal amount of 1.0% gum acacia. A sucrose load of 2.5-g/kg body weight was given after 30 minutes of compound administration. After 30 minutes of post sucrose load blood glucose level was again checked by glucostrips at 30, 60, 90, 120, 180, 240, 300 min and at 24 h, respectively. Animals not found diabetic after 24 hours post treatment of the test sample were not considered and omitted from the calculations and termed as non-responders. […] Food but not water was withheld from the cages during the experimentation. Comparing the AUC of experimental and control groups determined the percent antihyperglycemic activity. Statistical comparison between groups was made by Student's ‘t’ test.
As depicted in the FIGURE, a dose response curve of 34 was obtained by administering different doses of test compound to streptozotocin-induced diabetic rats (Table 6). […]

Setting [3] is: phospholipid, read-out: % Fall in lipid levels (Triton model) PL.
Where [4] appears, read: total cholesterol, read-out: % Fall in lipid levels (Triton model) TC.
Setting [5] is: triglycerides, read-out: % Fall in lipid levels (Triton model) TG.

`CC(C)NCC(O)COc1ccc2c(=O)cc(-c3cc(OCc4ccccc4)cc(OCc4ccccc4)c3)oc2c1` (stereo not shown) [Compound 35, 3′,5′-Dibenzyloxy-7-(2-hydroxy-3-iso-propylamino-propoxy)-flavone] yielded a melting point of 173 to 174 °C. The inhibition in vivo at 100 mg/kg in data set [1] (setting [3]) came out at 8%. Further, in data set [1] (setting [4]), the inhibition in vivo at 100 mg/kg turned out to be 13%. For the same compound, the inhibition in vivo at 100 mg/kg in data set [1] (setting [5]) was found to be 11%. Also, the “% Fall in blood glucose levels, SLM” value with sucrose loaded rat is “NIL”.
Taken in the same sequence, the figures for `CC(C)(C)NCC(O)COc1ccc2c(=O)cc(-c3ccc(OCc4ccccc4)c(OCc4ccccc4)c3)oc2c1` (stereo not shown) [Compound 37, 7-(3-tert-Butylamino-2-hydroxy-propoxy)-3′,4′-dibenzyloxy-flavone] were 159 to 161 °C, 12%, 23%, 16% and “NIL”.
Taken in the same sequence, the figures for `CC(C)NCC(O)COc1ccc2c(=O)cc(-c3ccc(OCc4ccccc4)c(OCc4ccccc4)c3)oc2c1` (stereo not shown) [Compound 38, 3′,4′-Dibenzyloxy-7-(2-hydroxy-3-iso-propylamino-propoxy)-flavone] were 177 to 179 °C, 5%, 16%, 14% and “NIL”.
For `COc1cc(-c2cc(=O)c3ccc(OCC(O)CNC(C)(C)C)cc3o2)cc(OC)c1OC` (stereo not shown) [Compound 40, 7-(3-tert-Butylamino-2-hydroxy-propoxy)-3′,4′,5′-trimethoxy-flavone] the same measures were 119 to 120 °C, 26%, 24%, 28% and “NIL”.
`COc1ccc(-c2cc(=O)c3ccc(OCC(O)CNC(C)C)cc3o2)cc1OC` (stereo not shown) [Compound 46, 3′,4′-Dimethoxy-7-[2-hydroxy-3-iso-propylamino-propoxy]-flavone] showed a melting point of 144 to 145 °C. Moreover, the inhibition in vivo at 100 mg/kg in the data set with sucrose loaded rat stood at 23.9%.
Consider `CC(C)(C)NCC(O)COc1ccc2c(=O)cc(-c3ccc(O)c(O)c3)oc2c1` (stereo not shown) [Compound 50, 7-(3-tert-Butylamino-2-hydroxy-propoxy)-3′,4′-dihydroxy-flavone], for which the inhibition in vivo at 100 mg/kg amounted to 23% in data set [1] (setting [3]), 21% in data set [1] (setting [4]) and 25% in data set [1] (setting [5]). In the data set with sucrose loaded rat, the “% Fall in blood glucose levels, SLM” value is given as “NIL”.
Taken in the same sequence, the figures for `CC(C)NCC(O)COc1ccc2c(=O)cc(-c3ccc(O)c(O)c3)oc2c1` (stereo not shown) [Compound 51, 3′,4′-Dihydroxy-7-(2-hydroxy-3-iso-propylamino-propoxy)-flavone] were 13%, 15%, 19% and “NIL”.
Take `CC(C)(C)NCC(O)COc1ccc2oc(-c3ccc(O)c(O)c3)cc(=O)c2c1` (stereo not shown) [Compound 52, 6-(3-tert-Butylamino-2-hydroxy-propoxy)-3′,4′-dihydroxy-flavone]: the inhibition in vivo at 100 mg/kg in data set [1] (setting [3]) was 23%; in data set [1] (setting [4]) it was 24%; in data set [1] (setting [5]), 25%; in the data set with sucrose loaded rat it was 4.96%.
Consider `O=C1NC(=O)C(=Cc2ccc(OCCOc3ccc4c(=O)cc(-c5cc(OCc6ccccc6)cc(OCc6ccccc6)c5)oc4c3)cc2)S1` [Compound 62, 3′,5′-Dibenzyloxy-7-{2-[4-(thiazolidin-2,4-dione-5-ylidinemethyl)-phenoxy]-ethoxy}-flavone], for which the “% Fall in lipid levels (Triton model) PL” value in data set [1] (phospholipid) is reported as 15%. Also, the “% Fall in lipid levels (Triton model) TC” value in data set [1] (total cholesterol) is listed as 15%. Moreover, in data set [1] (triglycerides), the “% Fall in lipid levels (Triton model) TG” value amounted to 18%. The “% Fall in blood glucose levels, SLM” value with sucrose loaded rat is on record as “NIL”.
Take `O=C1NC(=O)C(=Cc2ccc(OCCOc3ccc4c(=O)cc(-c5ccc(OCc6ccccc6)c(OCc6ccccc6)c5)oc4c3)cc2)S1` [Compound 63, 3′,4′-Dibenzyloxy-7-{2-[4-(thiazolidin-2,4-dione-5-ylidinemethyl)-phenoxy]-ethoxy}-flavone]: the “% Fall in blood glucose levels, SLM” value in the data set on sucrose loaded rat amounted to 26.0%.
Consider `COc1cc(-c2cc(=O)c3ccc(OCCOc4ccc(C=C5SC(=O)NC5=O)cc4)cc3o2)cc(OC)c1OC` [Compound 64, 7-{2-[4-(thiazolidin-2,4-dione-5-ylidinemethyl)-phenoxy]-ethoxy}-3′,4′,5′-trimethoxy-flavone], for which, in data set [1] (phospholipid), the “% Fall in lipid levels (Triton model) PL” value was 25%. Further, the “% Fall in lipid levels (Triton model) TC” value in data set [1] (total cholesterol) amounted to 20%. For the same compound, in data set [1] (triglycerides), the “% Fall in lipid levels (Triton model) TG” value stood at 26%. For the same compound, in the data set with sucrose loaded rat, the “% Fall in blood glucose levels, SLM” value came out at 9.59%.
Take `COc1cc(OC)cc(-c2cc(=O)c3ccc(OCCCOc4ccc(C=C5SC(=O)NC5=O)cc4)cc3o2)c1` [Compound 66, 3′,5′-Dimethoxy-7-{3-[4-(thiazolidin-2,4-dione-5-ylidinemethyl)-phenoxy]-propoxy}-flavone]: the “% Fall in blood glucose levels, SLM” value in the data set with sucrose loaded rat was determined as 28.80%. In data set [2], the “% Fall in blood glucose levels, STZ-S 5 h” value came to 18.9% and the “% Fall in blood glucose levels, STZ-S 24 h” value came out at 20.2%.
For the compound `COc1ccc(-c2cc(=O)c3ccc(OCCCOc4ccc(C=C5SC(=O)NC5=O)cc4)cc3o2)cc1OC` [Compound 67, 3′,4′-Dimethoxy-7-{3-[4-(thiazolidin-2,4-dione-5-ylidinemethyl)-phenoxy]-propoxy}-flavone], the “% Fall in lipid levels (Triton model) PL” value in data set [1] (phospholipid) stood at 14%. The “% Fall in lipid levels (Triton model) TC” value in data set [1] (total cholesterol) was 28%. In addition, the “% Fall in lipid levels (Triton model) TG” value in data set [1] (triglycerides) stood at 21%. The “% Fall in blood glucose levels, SLM” value in the data set with sucrose loaded rat is given as 13.60%. Also, in data set [2], the “% Fall in blood glucose levels, STZ-S 5 h” value was determined as 18.7% and the “% Fall in blood glucose levels, STZ-S 24 h” value amounted to 13.6%.
